Patent US11000033B2, “Ketone or oxime compound, and herbicide” (NISSAN CHEMICAL CORPORATION, priority 2014, dated 2021)

Tests used:
Type in all cases: in vivo
[1] = system: directly sowed rice plant; test: Test Example 3: effect on crop by foliage application, Wagner pot (symbol b); conditions: application herbicide amount 320 g/ha
Outline: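 Plants are raised from seed in flooded paddy conditions: water stands 0.1–0.5 cm over alluvial soil, and the pot is kept in a greenhouse at 25–30 °C. Species sown are barnyardgrass (E. crus-galli var. crus-galli), Leptochloa chinensis, Cyperus difformis and rice.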

corn = test: Test Example 4: effect on crop by soil treatment (symbol c); conditions: for c: corn, effect on crop grade / c (corn) effect on crop grade: application herbicide amount 320 g/ha
Outline: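 Diluvial soil (sterilized) in boxes; seeds placed spot-wise alongside weed species; ~1.5 cm covering soil. Greenhouse, 25–30° C.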

Avena fatua = test: Test Example 5: herbicidal effect by foliage application, plastic box (symbol I); conditions: 320 g/ha, 3 weeks after application
Outline: (§1)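 Leaf-applied emulsion, water-diluted to a preset herbicide dose, on two-week-old seedlings raised in a 25° C. to 30° C. greenhouse; injury rated at 3 weeks using earlier criteria.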

Setaria viridis = test: Test Example 4: herbicidal effect by soil treatment (symbol G)
Outline: (§2)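 Seeds were sown in sterilized diluvial soil, covered with about 1.5 cm of soil, and the soil surface was sprayed with a water-diluted emulsion of the compound at a predetermined rate. Plants grew in a greenhouse at 25° C. to 30° C.; effects were scored visually 3 weeks after application.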

Stellaria media = test: Test Example 5: herbicidal effect by foliage application, plastic box (symbol P); conditions: 320 g/ha, 3 weeks after application
Outline: as §1

rapeseed = test: Test Example 4: effect on crop by soil treatment (symbol g); conditions: for g: rapeseed, effect on crop grade / g (rapeseed) effect on crop grade: application herbicide amount 320 g/ha
Outline: (§3)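 Plants grew in a 25° C. to 30° C. greenhouse after spot-sowing of seeds, including beet, rapeseed, wheat and rice, into sterilized diluvial soil under roughly 1.5 cm of cover soil.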

[2] = system: Echinochloa crus-galli var. crus-galli; test: Test Example 3: herbicidal effect by foliage application, Wagner pot (symbol H); conditions: application herbicide amount 320 g/ha
Outline: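 Seeds sown in alluvial soil kept under 0.1–0.5 cm water, greenhouse 25–30 °C; 14 d growth. Leaves treated by small sprayer with water-diluted emulsion at a predetermined rate. Effect graded by set scale, 3 weeks.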

Lolium multiflorum Lam. = test: Test Example 4: herbicidal effect by soil treatment (symbol K)
Outline: as §2

wheat = test: Test Example 5: effect on crop by foliage application, plastic box (symbol e); conditions: 320 g/ha, 3 weeks after application
Outline: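 A greenhouse held between 25° C. and 30° C. was used to grow plants sown spot-wise, beneath ~1.5 cm of soil, in boxes of sterilized diluvial soil.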

[3] = system: Echinochloa oryzacola Vasing.; test: Test Example 2: herbicidal activity, application during weed generation in submerged conditions (symbol A); conditions: Table 23; application herbicide amount 320 g/ha; grade 0-5 by criteria of Test Example 1
Outline: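 Each pot contained alluvial soil under 4 cm of water with seeds of all three weeds sown together. Following growth at 25° C. to 30° C. to the one- to two-leaf stage, the floodwater received diluted emulsion at a predetermined amount; visual assessment followed at 3 weeks.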

soybean = test: Test Example 4: effect on crop by soil treatment (symbol d); conditions: for d: soybean, effect on crop grade / d (soybean) effect on crop grade: application herbicide amount 320 g/ha
Outline: as §3

[4] = application herbicide amount 320 g/ha

Compound | effect on crop b (directly sowed rice plant), grade 0-5 [1] | c: corn, effect on crop grade (corn) | I: Avena fatua, herbicidal effect grade (Avena fatua) | G: Setaria viridis, herbicidal effect grade (Setaria viridis; [4]) | P: Stellaria media, herbicidal effect grade (Stellaria media) | g: rapeseed, effect on crop grade (rapeseed) | herbicidal effect on H (Echinochloa crus-galli var. crus-galli), grade 0-5 [2] | K: Lolium multiflorum Lam., herbicidal effect grade (Lolium multiflorum Lam.; [4]) | e: wheat, effect on crop grade (wheat) | Herbicidal effect grade, A: Echinochloa oryzacola Vasing. [3] | d: soybean, effect on crop grade (soybean) | further results
CON=CC1CC(O)=C(c2c(C)cc(C)cc2C)C1=O (mixture of isomers) [3-001] | 2 (Herbicidal ratio of 20% or higher and lower than 40%) | 0 (Herbicidal ratio of 5% or lower (almost no effect)) | 2 (Herbicidal ratio of 20% or higher and lower than 40%) | 0 (Herbicidal ratio of 5% or lower (almost no effect)) | 0 (Herbicidal ratio of 5% or lower (almost no effect)) | 0 (Herbicidal ratio of 5% or lower (almost no effect)) | 3 (Herbicidal ratio of 40% or higher and lower than 70%) | 4 (Herbicidal ratio of 70% or higher and lower than 90%) | 0 (Herbicidal ratio of 5% or lower (almost no effect)) | 0 (Herbicidal ratio of 5% or lower (almost no effect)) | 0 (Herbicidal ratio of 5% or lower (almost no effect)) | 
CON=C(C)C1CC(O)=C(c2c(C)cc(C)cc2C)C1=O (mixture of isomers) [3-002] | 0 (Herbicidal ratio of 5% or lower (almost no effect)) | 0 (Herbicidal ratio of 5% or lower (almost no effect)) | 0 (Herbicidal ratio of 5% or lower (almost no effect)) | 0 (Herbicidal ratio of 5% or lower (almost no effect)) | 0 (Herbicidal ratio of 5% or lower (almost no effect)) | 0 (Herbicidal ratio of 5% or lower (almost no effect)) | 0 (Herbicidal ratio of 5% or lower (almost no effect)) | 0 (Herbicidal ratio of 5% or lower (almost no effect)) | 0 (Herbicidal ratio of 5% or lower (almost no effect)) | 0 (Herbicidal ratio of 5% or lower (almost no effect)) | 0 (Herbicidal ratio of 5% or lower (almost no effect)) | 
CON=C(C)CC1CC(OCCSC)=C(c2c(C)cc(C)cc2C)C1=O (stereo not shown) [1-011] | 0 (Herbicidal ratio of 5% or lower (almost no effect)) |  | 0 (Herbicidal ratio of 5% or lower (almost no effect)) |  |  |  | 0 (Herbicidal ratio of 5% or lower (almost no effect)) |  | 0 (Herbicidal ratio of 5% or lower (almost no effect)) | 0 (Herbicidal ratio of 5% or lower (almost no effect)) |  | c (corn) effect on crop grade (corn): 0 (Herbicidal ratio of 5% or lower (almost no effect)); G (Setaria viridis) herbicidal effect grade (Setaria viridis; [4]): 0 (Herbicidal ratio of 5% or lower (almost no effect)); g (rapeseed) effect on crop grade (rapeseed): 0 (Herbicidal ratio of 5% or lower (almost no effect)); K (Lolium multiflorum Lam.) herbicidal effect grade (Lolium multiflorum Lam.; [4]): 0 (Herbicidal ratio of 5% or lower (almost no effect)); d (soybean) effect on crop grade (soybean): 0 (Herbicidal ratio of 5% or lower (almost no effect))
CON=C(C)CC1CC(OCC(=O)OC)=C(c2c(C)cc(C)cc2C)C1=O (stereo not shown) [1-012] | 0 (Herbicidal ratio of 5% or lower (almost no effect)) |  | 0 (Herbicidal ratio of 5% or lower (almost no effect)) |  |  |  | 0 (Herbicidal ratio of 5% or lower (almost no effect)) |  | 0 (Herbicidal ratio of 5% or lower (almost no effect)) | 0 (Herbicidal ratio of 5% or lower (almost no effect)) |  | c (corn) effect on crop grade (corn): 0 (Herbicidal ratio of 5% or lower (almost no effect)); G (Setaria viridis) herbicidal effect grade (Setaria viridis; [4]): 0 (Herbicidal ratio of 5% or lower (almost no effect)); g (rapeseed) effect on crop grade (rapeseed): 0 (Herbicidal ratio of 5% or lower (almost no effect)); K (Lolium multiflorum Lam.) herbicidal effect grade (Lolium multiflorum Lam.; [4]): 0 (Herbicidal ratio of 5% or lower (almost no effect)); d (soybean) effect on crop grade (soybean): 0 (Herbicidal ratio of 5% or lower (almost no effect))
CON=C(C)CC1CC(OC(=O)C(C)Oc2ccc(Oc3ccc(Cl)cc3Cl)cc2)=C(c2c(C)cc(C)cc2C)C1=O (stereo not shown) [1-163] |  |  | 5 (Herbicidal ratio of 90% or more (almost completely withered)) |  | 3 (Herbicidal ratio of 40% or higher and lower than 70%) |  | 5 (Herbicidal ratio of 90% or more (almost completely withered)) |  | 5 (Herbicidal ratio of 90% or more (almost completely withered)) | 5 (Herbicidal ratio of 90% or more (almost completely withered)) |  | c: corn, effect grade on crop (corn; 320 g/ha): 1 (Herbicidal ratio of 5% or higher and lower than 20%); G: Setaria viridis, herbicidal effect grade (Setaria viridis; 320 g/ha): 5 (Herbicidal ratio of 90% or more (almost completely withered)); g: rapeseed, effect grade on crop (rapeseed; 320 g/ha): 4 (Herbicidal ratio of 70% or higher and lower than 90%); K: Lolium multiflorum Lam., herbicidal effect grade (Lolium multiflorum Lam.; 320 g/ha): 5 (Herbicidal ratio of 90% or more (almost completely withered)); d: soybean, effect grade on crop (soybean; 320 g/ha): 0 (Herbicidal ratio of 5% or lower (almost no effect))
CC(=O)CC1CC(OC(=O)C(C)(C)C)=C(c2c(C)cc(C)cc2C)C1=O (stereo not shown) [2-018] | 5 (Herbicidal ratio of 90% or more (almost completely withered)) | 2 (Herbicidal ratio of 20% or higher and lower than 40%) | 0 (Herbicidal ratio of 5% or lower (almost no effect)) | 5 (Herbicidal ratio of 90% or more (almost completely withered)) |  | 3 (Herbicidal ratio of 40% or higher and lower than 70%) | 5 (Herbicidal ratio of 90% or more (almost completely withered)) | 5 (Herbicidal ratio of 90% or more (almost completely withered)) | 0 (Herbicidal ratio of 5% or lower (almost no effect)) | 4 (Herbicidal ratio of 70% or higher and lower than 90%) | 0 (Herbicidal ratio of 5% or lower (almost no effect)) | 
CCc1cc(Br)cc(C)c1C1=C(O)CC(CC(C)=NOC)C1=O (stereo not shown) [6-001] | 5 (Herbicidal ratio of 90% or more (almost completely withered)) | 5 (Herbicidal ratio of 90% or more (almost completely withered)) | 5 (Herbicidal ratio of 90% or more (almost completely withered)) | 5 (Herbicidal ratio of 90% or more (almost completely withered)) |  | 2 (Herbicidal ratio of 20% or higher and lower than 40%) | 5 (Herbicidal ratio of 90% or more (almost completely withered)) | 5 (Herbicidal ratio of 90% or more (almost completely withered)) | 5 (Herbicidal ratio of 90% or more (almost completely withered)) | 4 (Herbicidal ratio of 70% or higher and lower than 90%) | 0 (Herbicidal ratio of 5% or lower (almost no effect)) | 
CCc1cc(Br)cc(C)c1C1=C(O)CC(C(C(=O)OC)C(C)=NOC)C1=O (stereo not shown) [6-002] | 5 (Herbicidal ratio of 90% or more (almost completely withered)) | 0 (Herbicidal ratio of 5% or lower (almost no effect)) | 5 (Herbicidal ratio of 90% or more (almost completely withered)) | 3 (Herbicidal ratio of 40% or higher and lower than 70%) |  | 0 (Herbicidal ratio of 5% or lower (almost no effect)) | 4 (Herbicidal ratio of 70% or higher and lower than 90%) | 5 (Herbicidal ratio of 90% or more (almost completely withered)) | 0 (Herbicidal ratio of 5% or lower (almost no effect)) | 0 (Herbicidal ratio of 5% or lower (almost no effect)) | 0 (Herbicidal ratio of 5% or lower (almost no effect)) | 
